# Reference: ChEMBL document CHEMBL1681636, “Exploring subtype selectivity and metabolic stability of a novel series of ligands for the benzodiazepine binding site of the GABAA receptor” (Bioorg Med Chem Lett, 2011)
# Calls of active or inactive are those of the source. The calls are words filed in the database; no cut-off is given here.
# Experiments:
# [1] = molecular target: T1, Gamma-aminobutyric acid receptor subunit alpha-1 (Homo sapiens) (UniProt P14867); experiment: Agonist activity at recombinant GABAA receptor subunit alpha-1 expressed in CHO cells at 3 uM by sensitive fluorometric read-out assay relative to midazolam; type: functional, cell-based
# T1 sequence (whole entry): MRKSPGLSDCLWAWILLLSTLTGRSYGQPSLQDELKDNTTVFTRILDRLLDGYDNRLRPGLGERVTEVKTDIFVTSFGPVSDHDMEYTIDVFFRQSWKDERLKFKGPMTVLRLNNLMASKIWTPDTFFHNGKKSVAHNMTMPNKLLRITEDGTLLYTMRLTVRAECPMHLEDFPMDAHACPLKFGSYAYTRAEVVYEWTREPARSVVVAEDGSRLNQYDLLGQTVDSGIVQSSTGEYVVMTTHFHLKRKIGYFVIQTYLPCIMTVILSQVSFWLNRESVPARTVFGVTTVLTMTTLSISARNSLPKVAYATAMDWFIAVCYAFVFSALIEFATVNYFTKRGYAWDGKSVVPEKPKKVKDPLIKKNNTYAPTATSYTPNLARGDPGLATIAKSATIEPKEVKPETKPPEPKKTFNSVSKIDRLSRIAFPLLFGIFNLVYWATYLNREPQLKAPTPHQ
# [2] = molecular target: T2, Gamma-aminobutyric acid receptor subunit alpha-2 (Homo sapiens) (UniProt P47869); experiment: Agonist activity at recombinant GABAA receptor subunit alpha-2 expressed in CHO cells at 3 uM by sensitive fluorometric read-out assay relative to midazolam; type: functional, cell-based
# T2 sequence (whole entry): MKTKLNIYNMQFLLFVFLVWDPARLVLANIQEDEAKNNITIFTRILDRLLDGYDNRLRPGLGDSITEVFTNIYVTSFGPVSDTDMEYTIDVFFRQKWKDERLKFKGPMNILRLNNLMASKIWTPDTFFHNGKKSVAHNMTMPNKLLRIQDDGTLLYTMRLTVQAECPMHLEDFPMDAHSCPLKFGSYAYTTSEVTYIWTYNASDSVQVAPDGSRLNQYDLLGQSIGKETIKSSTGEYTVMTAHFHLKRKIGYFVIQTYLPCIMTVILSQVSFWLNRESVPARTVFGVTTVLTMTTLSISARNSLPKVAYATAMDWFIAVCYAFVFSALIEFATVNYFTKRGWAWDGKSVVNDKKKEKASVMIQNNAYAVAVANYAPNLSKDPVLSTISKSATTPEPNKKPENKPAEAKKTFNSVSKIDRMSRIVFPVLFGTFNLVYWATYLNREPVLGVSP
# [3] = molecular target: T3, Gamma-aminobutyric acid receptor subunit alpha-1 (Homo sapiens, UniProt P14867); experiment: Displacement of [3H]flumazenil from GABAA receptor subunit alpha-1 expressed in CHO cells; type: cell-based
# T3 sequence (P14867 whole entry): T1 sequence (whole entry)
# [4] = molecular target: T4, Gamma-aminobutyric acid receptor subunit alpha-2 (Homo sapiens, UniProt P47869); experiment: Displacement of [3H]flumazenil from GABAA receptor subunit alpha-2 expressed in CHO cells; type: cell-based
# T4 sequence (P47869 whole entry): T2 sequence (whole entry)
# [5] = Intrinsic clearance in rat liver microsomes at 5 uM after 60 mins; type: ADME, Microsome
# [6] = molecular target: T1, Gamma-aminobutyric acid receptor subunit alpha-1 (Homo sapiens); experiment: Agonist activity at recombinant GABAA receptor subunit alpha-1 expressed in CHO cells at 1 uM by sensitive fluorometric read-out assay relative to midazolam; type: functional, cell-based
# [7] = molecular target: T2, Gamma-aminobutyric acid receptor subunit alpha-2 (Homo sapiens); experiment: Agonist activity at recombinant GABAA receptor subunit alpha-2 expressed in CHO cells at 1 uM by sensitive fluorometric read-out assay relative to midazolam; type: functional, cell-based
SMILES,Efficacy [1],Efficacy [2],IC50 [3] [nM],IC50 [4] [nM],microsomal CLint at 5 µM [5] [µL/min/mg],Efficacy [6] [%],Efficacy [7] [%]
Clc1ccc(-n2nc3c4c(ncc3c2OCc2ccccc2Cl)CCCC4)cc1,25%,50%,46,271,128,–,–
Clc1ccc(COc2c3cnc4c(c3nn2-c2ccc(Cl)cc2)CCCC4)cc1,20%,42%,157,177,–,–,–
Clc1ccc(-n2nc3c(cnc4ccc(-n5ccnc5)cc43)c2OCC2CC2)cc1,80%,35%,134,2110,–,–,–
FC(F)(F)c1ccccc1COc1c2cnc3c(c2nn1-c1ccc(Cl)cc1)CCCC3,84%,94%,–,–,–,–,–
Fc1ccccc1COc1c2cnc3c(c2nn1-c1ccc(Cl)cc1)CCCC3,31%,83%,64,154,–,–,–
Clc1ccc(-n2nc3c4c(ncc3c2Oc2ccccc2Cl)CCCC4)cc1,inactive,inactive,> 3000,> 3000,–,–,–
Clc1ccc(-n2nc3c4c(ncc3c2OCc2cccc(Cl)c2)CCCC4)cc1,38%,50%,–,–,–,–,–
O=C1C2C=Nc3ccccc3C2=NN1c1ccc(Cl)cc1 (centres undefined) [CGS-9896],–,–,1,4,–,38,47
Fc1ccccc1-n1nc2c(cnc3ccccc32)c1OCc1ccccc1Cl,-8%,17%,1,2,–,–,–
Clc1ccc(-n2nc3c(cnc4ccccc43)c2OCc2ccccc2Cl)cc1,13%,22%,64,265,–,–,–
Clc1ccc(-n2nc3c4c(ncc3c2OCc2ccccc2Cl)CCCCC4)cc1,114%,96%,242,605,–,–,–
Clc1ccc(-n2nc3c(cnc4ccccc43)c2OCC2CC2)cc1,37%,36%,74,472,–,–,–
Clc1ccc(-n2nc3c4c(ncc3c2OCC2CC2)CCCC4)cc1,18%,64%,94,185,–,–,–
Clc1ccc(-n2nc3c4c(ncc3c2OCc2ccccc2Cl)CCOC4)cc1,4%,32%,–,461,–,–,–
Fc1ccc(COc2c3cnc4c(c3nn2-c2ccc(Cl)cc2)CCCC4)cc1,24%,41%,50,57,–,–,–
CC1(C)CCc2ncc3c(OCc4ccccc4Cl)n(-c4ccc(Cl)cc4)nc3c2C1,4%,23%,67,213,–,–,–
Clc1ccccc1COc1c2cnc3ccccc3c2nn1-c1ccc2c(c1)OCO2,-15%,19%,50,155,–,–,–
